These are literature values, as cited in publication PMC8583936, “Machine Learning Assisted Approach for Finding Novel High Activity Agonists of Human Ectopic Olfactory Receptors” (International Journal of Molecular Sciences, 2021).

Read-outs that look alike come from different tables or passages of the source.

One series deals with T1, OR1A1 (Homo sapiens, UniProt Q9P1Q5).
T1 sequence (Q9P1Q5 1-309): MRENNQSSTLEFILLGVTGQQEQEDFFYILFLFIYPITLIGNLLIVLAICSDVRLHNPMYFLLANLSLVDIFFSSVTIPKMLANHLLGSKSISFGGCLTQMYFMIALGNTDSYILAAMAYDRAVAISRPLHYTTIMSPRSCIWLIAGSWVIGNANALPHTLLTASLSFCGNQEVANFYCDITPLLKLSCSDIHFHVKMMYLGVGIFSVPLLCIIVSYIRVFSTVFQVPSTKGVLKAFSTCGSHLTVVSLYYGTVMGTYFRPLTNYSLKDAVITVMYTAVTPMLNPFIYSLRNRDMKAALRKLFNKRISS
To be noted: cited from earlier work.

The target in another series is T2, OR2W1 (Homo sapiens, UniProt Q9Y3N9).
T2 sequence (Q9Y3N9 1-320): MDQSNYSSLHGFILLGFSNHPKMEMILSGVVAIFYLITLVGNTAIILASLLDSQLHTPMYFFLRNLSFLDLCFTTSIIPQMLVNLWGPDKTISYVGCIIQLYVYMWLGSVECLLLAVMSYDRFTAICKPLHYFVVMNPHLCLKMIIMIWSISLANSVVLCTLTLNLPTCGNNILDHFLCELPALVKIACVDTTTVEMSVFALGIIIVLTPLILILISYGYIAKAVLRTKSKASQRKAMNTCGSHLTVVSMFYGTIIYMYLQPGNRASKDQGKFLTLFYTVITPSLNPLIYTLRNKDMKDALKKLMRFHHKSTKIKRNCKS
To be noted: cited from earlier work.

The mark [1] stands for this setting: Table S1, ref Supplement references [1]-[9] as printed after each odorant name.
Where [2] appears, read: Table S2, ref Supplement references [2]-[12] as printed after each odorant name.

For `COc1ccccc1O` [Guaiacol], the “Class (agonist / non-agonist / conflicting info.) for OR1A1” value at OR1A1 (setting [1]) is given as “Non-agonist”. Besides, the “Class (agonist / non-agonist / antagonist / conflicting info.) for OR2W1” value on OR2W1 (setting [2]) is listed as “Non-agonist”.
For the molecule `CCC(C)COC(C)=O` (stereo not shown) [2-Methylbutyl acetate], on OR1A1 (setting [1]), the “Class (agonist / non-agonist / conflicting info.) for OR1A1” value is on record as “Non-agonist”. Also, the “Class (agonist / non-agonist / antagonist / conflicting info.) for OR2W1” value at OR2W1 (setting [2]) was “Non-agonist”.
Regarding `CCCCCCCOC(=O)C(C)C` [Heptyl isobutyrate], the “Class (agonist / non-agonist / conflicting info.) for OR1A1” value on OR1A1 is listed as “Non-agonist”. The “Class (agonist / non-agonist / antagonist / conflicting info.) for OR2W1” value at OR2W1 was “Non-agonist”.
`CSCSC` [Bis(methylthio)methane]: the “Class (agonist / non-agonist / conflicting info.) for OR1A1” value at OR1A1 is “Non-agonist”. Further, at OR2W1, the “Class (agonist / non-agonist / antagonist / conflicting info.) for OR2W1” value is “Non-agonist”.
`CCCCCCCCOC(=O)CCCCCCC` [Octyl octanoate]: the “Class (agonist / non-agonist / conflicting info.) for OR1A1” value at OR1A1 (setting [1]) is “Conflicting info”. In addition, the “Class (agonist / non-agonist / antagonist / conflicting info.) for OR2W1” value at OR2W1 (setting [2]) is on record as “Antagonist”.
Regarding `CC(C)C(=O)O` [Isobutyric acid], the “Class (agonist / non-agonist / conflicting info.) for OR1A1” value at OR1A1 (setting [1]) was “Non-agonist”. Also, the “Class (agonist / non-agonist / antagonist / conflicting info.) for OR2W1” value on OR2W1 (setting [2]) was “Non-agonist”.
Turning to `C=CCc1ccc(O)c(OC)c1` [Eugenol], on OR1A1, the “Class (agonist / non-agonist / conflicting info.) for OR1A1” value was “Conflicting info”. For the same molecule, on OR2W1, the “Class (agonist / non-agonist / antagonist / conflicting info.) for OR2W1” value was “Conflicting info”.
Turning to `C=C(C)c1ccc(C)cc1` [P,α-Dimethylstyrene], the “Class (agonist / non-agonist / conflicting info.) for OR1A1” value on OR1A1 (setting [1]) is reported as “Non-agonist”. Also, the “Class (agonist / non-agonist / antagonist / conflicting info.) for OR2W1” value at OR2W1 (setting [2]) was “Agonist”.
With `CCCCCCC=O` [Heptanal], the “Class (agonist / non-agonist / conflicting info.) for OR1A1” value at OR1A1 (setting [1]) is reported as “Conflicting info”. The “Class (agonist / non-agonist / antagonist / conflicting info.) for OR2W1” value on OR2W1 (setting [2]) is “Agonist”.
For the molecule `COc1ccc(C=O)cc1` [Anisaldehyde], on OR1A1 (setting [1]), the “Class (agonist / non-agonist / conflicting info.) for OR1A1” value is “Non-agonist”. Further, at OR2W1 (setting [2]), the “Class (agonist / non-agonist / antagonist / conflicting info.) for OR2W1” value is “Non-agonist”.
As for `CCCC(S)CCOC(C)=O` (stereo not shown) [3-Mercaptohexyl acetate], at OR1A1 (setting [1]), the “Class (agonist / non-agonist / conflicting info.) for OR1A1” value is reported as “Agonist”. For the same molecule, the “Class (agonist / non-agonist / antagonist / conflicting info.) for OR2W1” value on OR2W1 (setting [2]) is on record as “Agonist”.
For (S)-(-)-limonene, the “Class (agonist / non-agonist / conflicting info.) for OR1A1” value on OR1A1 (setting [1]) was “agonists”. Moreover, the “Class (agonist / non-agonist / antagonist / conflicting info.) for OR2W1” value at OR2W1 (setting [2]) is listed as “Agonist”.
Take `CCCCCC=O` [Hexanal]: at OR1A1 (setting [1]), the “Class (agonist / non-agonist / conflicting info.) for OR1A1” value was “Non-agonist”. In addition, the “Class (agonist / non-agonist / antagonist / conflicting info.) for OR2W1” value at OR2W1 (setting [2]) was “Conflicting info”.
On to `CC=O` [Acetaldehyde], for which the “Class (agonist / non-agonist / conflicting info.) for OR1A1” value at OR1A1 was “Non-agonist”. In addition, the “Class (agonist / non-agonist / antagonist / conflicting info.) for OR2W1” value at OR2W1 is reported as “Non-agonist”.
As for `CC(CC=O)CCCC(C)(C)O` (stereo not shown) [Hydroxy-citronellal], the “Class (agonist / non-agonist / conflicting info.) for OR1A1” value at OR1A1 (setting [1]) is “Conflicting info”. The “Class (agonist / non-agonist / antagonist / conflicting info.) for OR2W1” value at OR2W1 (setting [2]) was “Non-agonist”.
On to `CCC(=O)OCCCc1ccccc1` [3-phenyl propyl propionate], for which the “Class (agonist / non-agonist / conflicting info.) for OR1A1” value at OR1A1 is “Agonist”. Moreover, the “Class (agonist / non-agonist / antagonist / conflicting info.) for OR2W1” value on OR2W1 is listed as “Agonist”.
Take `CC1=C(O)C(=O)C(C)O1` (stereo not shown) [Furaneol]: the “Class (agonist / non-agonist / conflicting info.) for OR1A1” value at OR1A1 (setting [1]) is recorded as “Non-agonist”. The “Class (agonist / non-agonist / antagonist / conflicting info.) for OR2W1” value at OR2W1 (setting [2]) is recorded as “Non-agonist”.
In the case of `CCCCCC(=O)CC` [3-octanone], the “Class (agonist / non-agonist / conflicting info.) for OR1A1” value at OR1A1 (setting [1]) is reported as “Agonist”. Moreover, the “Class (agonist / non-agonist / antagonist / conflicting info.) for OR2W1” value on OR2W1 (setting [2]) is “Agonist”.
Consider `CCc1cccc(O)c1` [3-ethylphenol], for which, at OR1A1 (setting [1]), the “Class (agonist / non-agonist / conflicting info.) for OR1A1” value is “Non-agonist”. At OR2W1 (setting [2]), the “Class (agonist / non-agonist / antagonist / conflicting info.) for OR2W1” value is reported as “Non-agonist”.
Turning to `CC(=O)c1cnccn1` [2-acetylpyrazine], on OR1A1 (setting [1]), the “Class (agonist / non-agonist / conflicting info.) for OR1A1” value is listed as “Non-agonist”. For the same molecule, the “Class (agonist / non-agonist / antagonist / conflicting info.) for OR2W1” value on OR2W1 (setting [2]) was “Non-agonist”.
In the case of `CC(C)CC(=O)O` [Isovaleric acid], the “Class (agonist / non-agonist / conflicting info.) for OR1A1” value on OR1A1 (setting [1]) is given as “Non-agonist”. Also, on OR2W1 (setting [2]), the “Class (agonist / non-agonist / antagonist / conflicting info.) for OR2W1” value is reported as “Antagonist”.
Turning to `COCCC(C)(C)S` [4-Methoxy-2-methyl-2-butanethiol], the “Class (agonist / non-agonist / conflicting info.) for OR1A1” value on OR1A1 (setting [1]) is “Non-agonist”. Also, the “Class (agonist / non-agonist / antagonist / conflicting info.) for OR2W1” value at OR2W1 (setting [2]) is reported as “Non-agonist”.
In the case of `CCCCCCC(C)=O` [2-octanone], on OR1A1 (setting [1]), the “Class (agonist / non-agonist / conflicting info.) for OR1A1” value is recorded as “Agonist”. The “Class (agonist / non-agonist / antagonist / conflicting info.) for OR2W1” value on OR2W1 (setting [2]) was “Agonist”.
`CC(C)=CCC/C(C)=C/C=O` [Citral]: at OR1A1, the “Class (agonist / non-agonist / conflicting info.) for OR1A1” value is recorded as “Conflicting info”. At OR2W1, the “Class (agonist / non-agonist / antagonist / conflicting info.) for OR2W1” value is listed as “Conflicting info”.
Consider `CCCCCOC(=O)CCCCC` [Amyl hexanoate], for which the “Class (agonist / non-agonist / conflicting info.) for OR1A1” value on OR1A1 (setting [1]) is “Conflicting info”. Besides, the “Class (agonist / non-agonist / antagonist / conflicting info.) for OR2W1” value at OR2W1 (setting [2]) was “Non-agonist”.
Consider `COC(=O)c1ccccc1` [Methyl benzoate], for which, at OR1A1, the “Class (agonist / non-agonist / conflicting info.) for OR1A1” value is “Non-agonist”. In addition, at OR2W1, the “Class (agonist / non-agonist / antagonist / conflicting info.) for OR2W1” value was “Non-agonist”.
Regarding `CCOc1nccs1` [2-ethoxythiazole], the “Class (agonist / non-agonist / conflicting info.) for OR1A1” value on OR1A1 (setting [1]) is listed as “Non-agonist”. Moreover, on OR2W1 (setting [2]), the “Class (agonist / non-agonist / antagonist / conflicting info.) for OR2W1” value is recorded as “Agonist”.
Take `CCCCCC/C=C/C=O` [2-enonenal]: the “Class (agonist / non-agonist / conflicting info.) for OR1A1” value at OR1A1 (setting [1]) was “Non-agonist”. Also, at OR2W1 (setting [2]), the “Class (agonist / non-agonist / antagonist / conflicting info.) for OR2W1” value is “Non-agonist”.
On to `C=Cc1ccc(O)cc1` [4-ethenylphenol], for which the “Class (agonist / non-agonist / conflicting info.) for OR1A1” value on OR1A1 (setting [1]) is “Non-agonist”. Besides, the “Class (agonist / non-agonist / antagonist / conflicting info.) for OR2W1” value on OR2W1 (setting [2]) is “Non-agonist”.
Take `CCOC(=O)CCC(C)C` [Ethyl 4-methylvalerate]: the “Class (agonist / non-agonist / conflicting info.) for OR1A1” value at OR1A1 (setting [1]) is reported as “Non-agonist”. For the same molecule, on OR2W1 (setting [2]), the “Class (agonist / non-agonist / antagonist / conflicting info.) for OR2W1” value is given as “Non-agonist”.
For the molecule `CCCCCCC(=O)O` [Heptanoic acid], the “Class (agonist / non-agonist / conflicting info.) for OR1A1” value on OR1A1 (setting [1]) is reported as “Non-agonist”. Moreover, the “Class (agonist / non-agonist / antagonist / conflicting info.) for OR2W1” value on OR2W1 (setting [2]) is reported as “Non-agonist”.
On to `CCCOC(=O)CCC` [Propyl butyrate], for which the “Class (agonist / non-agonist / conflicting info.) for OR1A1” value on OR1A1 is on record as “Non-agonist”. Further, on OR2W1, the “Class (agonist / non-agonist / antagonist / conflicting info.) for OR2W1” value was “Non-agonist”.
Regarding `C=CCc1ccc(OC(C)=O)c(OC)c1` [Eugenyl acetate], the “Class (agonist / non-agonist / conflicting info.) for OR1A1” value on OR1A1 (setting [1]) is reported as “Non-agonist”. For the same molecule, the “Class (agonist / non-agonist / antagonist / conflicting info.) for OR2W1” value at OR2W1 (setting [2]) is reported as “Agonist”.
Turning to `CCC(=O)C(C)S` (stereo not shown) [2-Sulfanylpentan-3-one], the “Class (agonist / non-agonist / conflicting info.) for OR1A1” value at OR1A1 (setting [1]) is “Non-agonist”. Besides, the “Class (agonist / non-agonist / antagonist / conflicting info.) for OR2W1” value at OR2W1 (setting [2]) is recorded as “Non-agonist”.
As to `CCCCCCCC=O` [Octanal], the “Class (agonist / non-agonist / conflicting info.) for OR1A1” value on OR1A1 (setting [1]) is given as “Conflicting info”. For the same molecule, the “Class (agonist / non-agonist / antagonist / conflicting info.) for OR2W1” value on OR2W1 (setting [2]) is listed as “Agonist”.
In the case of `CCCC=O` [Butanal], at OR1A1 (setting [1]), the “Class (agonist / non-agonist / conflicting info.) for OR1A1” value is “Non-agonist”. The “Class (agonist / non-agonist / antagonist / conflicting info.) for OR2W1” value on OR2W1 (setting [2]) is “Non-agonist”.
On to Coffee difuran, for which the “Class (agonist / non-agonist / conflicting info.) for OR1A1” value on OR1A1 (setting [1]) was “Conflicting info”. The “Class (agonist / non-agonist / antagonist / conflicting info.) for OR2W1” value on OR2W1 (setting [2]) is listed as “Agonist”.
On to `CSSC` [Dimethyl disulfide], for which the “Class (agonist / non-agonist / conflicting info.) for OR1A1” value on OR1A1 is listed as “Conflicting info”. Further, the “Class (agonist / non-agonist / antagonist / conflicting info.) for OR2W1” value at OR2W1 is on record as “Non-agonist”.
